These are literature values, as cited in patent US8263578B2, “Stable bortezomib formulations” (InnoPharma, Inc., priority 2010, dated 2012).

The conditions of this data set: 25° C.

Like-named read-outs stand apart in the source and are kept apart here.

Turning to `CC(C)C[C@H](NC(=O)[C@H](Cc1ccccc1)NC(=O)c1cnccn1)B(O)O` [Bortezomib, N-(2-pyrazine) carbonyl-L-phenylalanine-L-leucine boronic acid], the degraded reads like this: (0.5 mg/mL in ethanol:normal saline solution (2:98, pH 2.8), 1 month) 20%; (propylene glycol:ethanol:water (50:10:40), 8 months) 20%.
